Measurements reported in patent publication US20120115827A1, “3-AMINOBENZAMIDE COMPOUNDS AND VANILLOID RECEPTOR SUBTYPE 1 (VR1) INHIBITORS” (Japan Tobacco Inc., priority 2004, published 2012).
pIC50: −log10 of the molar value.

Molecular target: T1, human VR1 (Homo sapiens, UniProt Q8NER1)
T1 construct: expressed in transfected cells
Test: Inhibition of Ca2+ entry in cells caused by proton (VR1 agonist)
Type: cell-based
Conditions: Rat glioma (C6BU1) cells stably expressing human VR1; proton stimulation to pH 5.5; Fura 2-AM fluorescence; read-out: In vitro IC50
Method: The assay for evaluation of VR1 inhibition by the inventive compounds will be described below. The assay was intended to evaluate in vitro inhibition of Ca^2+ entry in cells caused by proton, one of the VR1 agonists.
Rat glioma (C6BU1) cells stably expressing human VR1 were suspended in 20 mM MES buffer (at pH 6.8, contg. 20 mM 2-morpholinoethanesulfonate (referred to as MES hereinafter), 115 mM NaCl, 5 mM KCl, 1 mM MgCl2 and 14 mM D-glucose) to make a cell density of 1×10^6 cells/mL. A fluorescent dye, Fura 2-AM solution (Dojindo Corporate, Cat. No. 343-05401) was added to the suspension to make a 5 μM concentration thereof. Further, Pluronic F-127 (Wako Pure Chemical Industries, Ltd., Cat. No. P6866) was added to make a 0.1% content thereof. Then, the suspension was incubated at 37° C. for 30 min. The cells were harvested and washed three times with 20 mM MES buffer. The cells were suspended again to make a cell density of 5×10^5 cells/mL. A 500-μL portion of the suspension was taken with a cuvette (MC MEDICAL, INC., Cat. No. SSR3121), to which […] MES buffer containing 250 mM CaCl2 was added to incorporate Ca^2+ into the cells. At the same time, 5 μL of a test compound solution (in a range of 100 μM to 10 nM in DMSO) was also added to provide a final concentration thereof in a range of 1 μM to 0.1 nM. Alternatively, 5 μl of DMSO was added as control to provide a final concentration of 1% DMSO. The suspension was set in an intracellular ionometer (CAF-110; JASCO) 10 min after those additions. The cells were stimulated with protons by addition of 60 μL of 20 mM MES buffer at pH 1.1 to the suspension to set its pH at 5.5. The activity of the test compound was determined as a difference between the minimum of fluorescence intensity before agonist stimulation and its maximum after the stimulation. The value of IC50 was derived from percentage of inhibition by the test compound compared with the control.

T1 sequence (Q8NER1 whole entry): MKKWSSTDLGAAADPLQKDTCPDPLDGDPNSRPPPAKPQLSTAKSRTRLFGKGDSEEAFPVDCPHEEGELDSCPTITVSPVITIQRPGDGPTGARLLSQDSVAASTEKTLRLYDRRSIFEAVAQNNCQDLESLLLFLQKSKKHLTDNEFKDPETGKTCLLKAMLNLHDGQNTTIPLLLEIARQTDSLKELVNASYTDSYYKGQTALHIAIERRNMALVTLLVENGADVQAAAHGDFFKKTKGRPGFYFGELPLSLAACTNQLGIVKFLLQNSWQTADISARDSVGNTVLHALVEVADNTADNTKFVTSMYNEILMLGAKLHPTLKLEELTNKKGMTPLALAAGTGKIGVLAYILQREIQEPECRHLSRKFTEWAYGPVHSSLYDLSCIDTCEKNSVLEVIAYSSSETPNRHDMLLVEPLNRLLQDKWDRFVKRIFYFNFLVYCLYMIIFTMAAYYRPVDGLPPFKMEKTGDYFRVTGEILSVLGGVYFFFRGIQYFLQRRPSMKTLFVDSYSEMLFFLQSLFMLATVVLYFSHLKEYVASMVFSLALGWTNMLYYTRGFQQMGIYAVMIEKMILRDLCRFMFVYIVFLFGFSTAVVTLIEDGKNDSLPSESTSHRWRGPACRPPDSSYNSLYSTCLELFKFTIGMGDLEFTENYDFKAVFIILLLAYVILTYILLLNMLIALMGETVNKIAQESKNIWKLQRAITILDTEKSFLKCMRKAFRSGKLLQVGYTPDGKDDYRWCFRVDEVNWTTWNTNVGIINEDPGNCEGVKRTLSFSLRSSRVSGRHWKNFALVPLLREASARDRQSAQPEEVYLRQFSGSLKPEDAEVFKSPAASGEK

| SMILES | pIC50 |
| --- | --- |
| COCc1cnc(N(CC(N)=O)c2cc(C(=O)Nc3ccc(C(F)(F)F)cc3)ccc2Cl)c(Cl)c1 [Example 72, 4-chloro-3-[N-(3-chloro-5-methoxymethylpyridin-2-yl)-N-(carbamoylmethyl)amino]-N-(trifluoromethylphenyl)-benzamide] | ≥ 7.00 |
| CCOC(=O)c1cnc(N(C)c2cc(C(=O)Nc3ccc(C(C)(C)C)cc3)ccc2Cl)c(Cl)c1 [Example 73, Ethyl 6-{[5-(4-tert-butylphenylcarbamoyl)-2-chlorophenyl]-methyl-amino}-5-chloronicotinate] | 6.00 to 7.00 |
| CN(c1cc(C(=O)Nc2ccc(C(C)(C)C)cc2)ccc1Cl)c1ncc(C(N)=O)cc1Cl [Example 75, 6-{[5-(4-tert-butylphenylcarbamoyl)-2-chlorophenyl]-methyl-amino}-5-chloronicotinamide] | ≥ 7.00 |
| CNC(=O)c1cnc(N(C)c2cc(C(=O)Nc3ccc(C(C)(C)C)cc3)ccc2Cl)c(Cl)c1 [Example 76, 6-{[5-(4-tert-butylphenylcarbamoyl)-2-chlorophenyl]-methyl-amino}-5-chloro-N-methylnicotinamide] | 6.00 to 7.00 |
| CN(C)C(=O)c1cnc(N(C)c2cc(C(=O)Nc3ccc(C(C)(C)C)cc3)ccc2Cl)c(Cl)c1 [Example 77, 6-{[5-(4-tert-butylphenylcarbamoyl)-2-chlorophenyl]-methyl-amino}-5-chloro-N,N-dimethylnicotinamide] | 6.00 to 7.00 |
| CN(c1cc(C(=O)Nc2ccc(OC(F)(F)F)cc2)ccc1F)c1ncc(CO)cc1Cl [Example 83, 3-[N-(3-chloro-5-hydroxymethylpyridin-2-yl)-N-methyl-amino]-4-fluoro-N-(4-trifluoromethoxyphenyl)-benzamide] | ≥ 7.00 |

The remaining lines, values ahead:

| pIC50 | SMILES |
| --- | --- |
| ≥ 7.00 | CN(c1cc(C(=O)Nc2ccc(C(C)(C)C)cc2)ccc1Cl)c1ncc(CO)cc1Cl [Example 78, N-(4-tert-butylphenyl)-4-chloro-3-[N-(3-chloro-5-hydroxymethylpyridin-2-yl)-N-methyl-amino]benzamide] |
| ≥ 7.00 | CN(c1cc(C(=O)Nc2ccc(C(F)(F)F)cc2)ccc1Cl)c1ncc(CO)cc1Cl [Example 79, 4-chloro-3-[N-(3-chloro-5-hydroxymethylpyridin-2-yl)-N-methyl-amino]-N-(4-trifluoromethylphenyl)-benzamide] |
| ≥ 7.00 | CN(c1cc(C(=O)Nc2ccc(Cl)cc2)ccc1Cl)c1ncc(CO)cc1Cl [Example 80, 4-chloro-3-[N-(3-chloro-5-hydroxymethylpyridin-2-yl)-N-methyl-amino]-N-(4-chlorophenyl)-benzamide] |
| ≥ 7.00 | CN(c1cc(C(=O)Nc2ccc(OC(F)(F)F)cc2)ccc1Cl)c1ncc(CO)cc1Cl [Example 81, 4-chloro-3-[N-(3-chloro-5-hydroxymethylpyridin-2-yl)-N-methyl-amino]-N-(4-trifluoromethoxyphenyl)-benzamide] |
| ≥ 7.00 | CN(c1cc(C(=O)Nc2ccc(C(F)(F)F)cc2)ccc1F)c1ncc(CO)cc1Cl [Example 82, 3-[N-(3-chloro-5-hydroxymethylpyridin-2-yl)-N-methyl-amino]-4-fluoro-N-(4-trifluoromethylphenyl)-benzamide] |
